# Reference: patent US20170261507A1, “Methods for Predicting and Monitoring Cancer Patients' Response to Teatment by Measuring Myeloid Derived Suppressor Cells (MDSCs)” (YISSUM RESEARCH DEVELOPMENT COMPANY OF THE HEBREW …, priority 2014, published 2017)
# Assays:
# CRC-mice [1] = test: Vitality and survival of CRC-mice; type: in vivo, mouse; conditions: daily recorded, compared to 5FU, CPT11 treated MDSC depleted or untreated CRC-mice
# Protocol: Therefore, MDSC depletion could reduce the harmful effect of CPT11 on the immune status, and thereby enhance the anti-tumor effect. CRC-mice were subjected to either 5FU, CPT11 or a 5FU/CPT11 combination starting at week eight, or were untreated. At the same day of the second DSS administration, CPT11-treated CRC-mice were randomly separated into two groups; one group continued with CPT11 treatment while the second group was treated with anti-Gr1 mAb for MDSC depletion in addition to CPT11 treatment. Three weeks after the second DSS treatment mice were sacrificed and PBLs (FIG. 10B) and colons (FIG. 10C) were analyzed. […] This pattern indicates a beneficial effect of 5FU that attenuates CRC progression with a harmful contribution of CPT11, supporting immunosuppression and tumor progression via its effects on MDSCs.
# S100A8/9 = conditions: MDSCs from spleen of CRC-mice
# β-catenin = β-catenin immunohistochemistry of colons of CRC-mice; type: in vivo, mouse
# MDSCs [2] = test: Myeloid cell differentiation in vivo in CRC-mice
# Gr1^+CD11b^+ MDSCs = test: MDSC accumulation in colon, spleen and PBLs of CRC-mice; type: in vivo, mouse
# T-cells = test: CFSE T-cell proliferation assay, splenocytes of CRC-mice; type: in vivo, mouse; conditions: CFSE-labeled Thy1.2^+ T-cells, TCR-CD28 mediated activation, vs untreated CRC-mice
# Protocol: (§1) Splenocytes or purified T-cells isolated by a magnetic column separation system (Miltenyi Biotec) were labeled with 5 M CFSE (Invitrogen) and subjected to TCR-mediated activation as previously described (16). Next, the effect of the given chemotherapies on the immune status was evaluated. This was performed by testing the function of the whole T-cell population (FIG. 9J) as well as the CD8^+ T-cells (FIG. 9K) in all experimental groups along with measurements of the expression levels of CD247 in CD3^+ (FIG. 9L) and in CD8^+ T-cells (FIG. 9M). T-cell proliferative response was assessed by monitoring cell divisions of gated CFSE-labeled Thy1.2^+ (CD90^+) T-cells upon TCR-CD28 mediated activation.
# [3] = tested on: MDSCs isolated from spleens of CRC-mice; test: NO^− and ROS production in ex vivo cultured MDSCs; type: cell-based, mouse; conditions: 2.5 μmol/L, 24 h
# MDSCs [4] = test: BCG chronic inflammation mouse model: MDSC levels; type: in vivo; conditions: PBLs and spleen, compared to inflamed-untreated mice
# Protocol: (§2) Mice were injected intraperitoneally with 10 mg/kg body weight of Azoxymethan (AOM, purchased from Sigma-Aldrich (St. Louis, Mo., USA)) dissolved in physiological saline twice in two weeks intervals. Two weeks later, 2% dextran sulfate sodium (DSS, purchased from MP biochemicals Inc. (Santa Ana, Calif., USA)) was given in the drinking water over 7 days, followed by 14 days of regular water (15). This cycle was repeated twice. Animals were sacrificed and analyzed three weeks after the last treatment. To induce a pathology-free chronic inflammation, a previously described protocol subjecting mice to heat-killed Mycobacterium […] (BCG) treatment (16) was used.
# (§3) Next, the immunoregulatory effects of 5FU and CPT11 were examined in a mouse model for chronic inflammation and associated immunosuppression (10), as described in the materials and method section above and in FIG. 13A. This experiment was performed in order to investigate whether the differential effects of the drugs are related to the presence of the tumor. Briefly, the mouse model for chronic inflammation was established by three repeated injections of heat-killed BCG bacteria. A day after the second BCG injection, mice were treated twice a week with 5FU, CPT11 or a 5FU/CPT11 combination. […] No changes in CD4^+Foxp3^+ Tregs percentage were detected (FIG. 13H), confirming that these chemotherapies specifically affect MDSCs.
# [5] = tested on: MDSCs isolated from spleens of CRC mice; test: Cleaved caspase-3 in ex vivo cultured MDSCs, DCs and macrophages; type: cell-based, mouse; conditions: ex vivo, various doses, 3 days, dose-dependent
# CRC-derived MDSC = test: Ex vivo GM-CSF mediated myeloid-cell differentiation; type: cell-based, mouse; conditions: 10 ng/ml GM-CSF, 72 h, vs GM-CSF only
# MDSCs [6] = test: NO^− and ROS production by MDSCs of treated CRC-mice (flow cytometry); type: in vivo, mouse
# CD247 = CD247 expression in T-cells of CRC-mice; type: in vivo, mouse; conditions: splenocytes of CRC-mice
# Protocol: as §1, with “Next,” for “Splenocytes or purified T-cells isolated by a magnetic column separation system (Miltenyi Biotec) were labeled with 5 M CFSE (Invitrogen) and subjected to TCR-mediated activation as previously described (16). Next,”
# MDSCs [7] = test: BCG chronic inflammation mouse model: ROS and NO^− production by MDSCs; type: in vivo; conditions: splenic MDSCs, compared to inflamed-untreated mice
# Protocol: as §2, §3
# CRC-mice [8] = tested on: CRC-mice
# TNFα, S100A9 = test: TNFα and S100A9 mRNA in ex vivo cultured MDSCs (Real Time PCR); type: cell-based, mouse; conditions: 3 days
# cleaved caspase-3 = test: Cleaved caspase-3 in splenic MDSCs of treated CRC-mice; type: in vivo, mouse
# [9] = tested on: stage-4 melanoma patients; test: Ipilimumab treatment of stage-4 metastatic melanoma patients: response and survival; type: in vivo, human
# Protocol: The percentage of MDSC with the profile CD11b^+CD33^+HLA-DR^− was measured in peripheral blood samples (3-5 ml) of healthy donors (n=40) and stage-4 melanoma patients (n=56) prior to ipilimumab (anti-CTLA4) treatment. All the melanoma patients were diagnosed with metastatic melanoma. The samples were taken according to the Helsinki approval. Clinical parameters were acquired from the medical records of patients.
# In order to evaluate whether MDSC levels in the blood can predict responsiveness to treatment with the anti CTLA4 antibody ipilimumab, the levels of MDSC in the peripheral blood of melanoma patients were measured, as described above, prior to treatment with ipilimumab. […] As shown in FIG. 3A there was a strike correlation between high levels of MDSC in the peripheral blood of patients and subsequent failure to respond to treatment with ipilimumab. Clearly, this parameter could distinguish between the two groups of melanoma patients. In addition, the level of lactate dehydrogenase (LDH) was evaluated before the treatment with ipilimumab began. There was no significant difference between the groups of patients with respect to this parameter (FIG. 3B).
# The following experiment was performed in order to evaluate whether MDSC levels in the blood can predict metastatic severity and patient survival. The levels of MDSC, as well as the levels of LDH, were measured in the peripheral blood of melanoma patients, as described above, prior to treatment with ipilimumab. […] In addition, as shown in FIG. 4B higher MDSCs levels are found in the group of patients with high LDH levels (LDH low<480 U/I; LDH high>480 U/I). In addition, the melanoma patients were divided into two groups according to their MDSCs levels measured prior to the ipilimumab treatments; one group was termed Low MDSCs (<55.5%, n=39) and the other group was termed High MDSCs (>55.5%, n=14). The percent survival and their survival in months were evaluated. […] The survival in months of the Low MDSCs group being 11.56±1.2 (n=39) and of the High MDSCs group being 6.857±1.4 (n=14). Apparently, high MDSC levels are predictors of a more severe metastatic profile and of a shorter survival time of the cancer patient.
# In this experiment the survival of melanoma patients was correlated with the severity of their metastatic stage and with their LDH levels. The patients were divided into two groups according to their metastatic level prior to ipilimumab treatments; the first group included patients with the relatively lower metastatic severity, namely M1A/B/C, and the second group included patients with the higher, M2, metastatic severity. As shown in FIGS. 5A and 5B the survival of patients in the M1A/B/C group was higher than the survival of the patients in the M2 group, being 12.4±1.2 months (n=35) in the M1A/B/C group and 6.1±1.1 months (n=18) in the M2 group. The patients were divided into two groups according their LDH levels prior to ipilimumab treatments; the first group included patients with the relatively lower LDH level, namely LDH<480 U/I; and the second group included patients with the higher LDH level, namely LDH>480 U/I. As shown in FIGS. 5C and 5D the survival of patients in the LDH low group was higher than the survival of the patients in the LDH high group, being 13.5±1.4 months (n=28) in the LDH low group and 6.6±0.9 months (n=20) in the LDH high group. Apparently, high LDH levels and a severe metastatic stage are predictors of a shorter survival time of the cancer patient.
# These patients had high LDH levels on the day the first ipilimumab treatment was given and their staging level was M1C.
compound,measurement,setting,value
"CCc1c2c(nc3ccc(OC(=O)N4CCC(N5CCCCC5)CC4)cc13)-c1cc3c(c(=O)n1C2)COC(=O)[C@]3(O)CC [CPT11, Irinotecan]",vitality and survival of the mice,CRC-mice [1],increased death rates
same,S100A8/9 mRNA and protein levels,S100A8/9,increased S100A8/9 levels
same,β-catenin localization in CRC colons,β-catenin,massive β-catenin accumulation in the nuclei of tumor cells
same,myeloid cell differentiation in vivo (DCs and macrophages),MDSCs [2],blocked myeloid cell differentiation
same,MDSCs within the colon (immunohistochemical probing),Gr1^+CD11b^+ MDSCs; anti-Gr-1 staining,elevated levels of the cells
same,MDSC numbers / infiltration in colon,"Gr1^+CD11b^+ MDSCs; lamina propria and epithelium, flow cytometry, vs untreated CRC-mice",increased MDSC numbers
same,T-cell proliferative ability,T-cells,decreased T-cell proliferative ability
same,NO^− and ROS production in monocytic and granulocyte MDSC populations,[3],increased NO^− (FIG. 9H) and ROS (FIG. 9I) production
same,NO^− or ROS production in purified cultured MDSCs,[3],resulted in their elevation
same,MDSC levels,MDSCs [4],induced opposite effects
same,cleaved caspase-3 in purified cultured MDSCs,[5],not CPT11 leads to cleaved caspase-3 up-regulation
same,GM-CSF mediated CRC-derived MDSC differentiation,CRC-derived MDSC,prevented cell differentiation
same,NO^− production,"MDSCs [6]; lamina propria and epithelial MDSCs, vs untreated CRC mice",NO^− levels remained elevated
same,NO^− and ROS production,"MDSCs [6]; splenic MDSCs, compared to untreated CRC-mice",elevated levels
same,CD247 expression levels in T-cells,CD247,low CD247 levels
same,ROS and NO^− production,MDSCs [7],induced opposite effects
same,spleen size (inflammatory response),CRC-mice [8]; compared to 5FU treated CRC- or control-mice,enlarged spleen size
same,tumor load within the colon (hematoxylin-eosin histopathology),"CRC-mice [8]; monotherapy for three weeks, vs untreated CRC mice",no apparent differences in tumor loads
same,histopathological analysis of colon sections (hematoxylin-eosin),CRC-mice [8]; three weeks after second DSS treatment,differentiated adenocarcinoma
same,histological analyses of colons,CRC-mice [8]; treated CRC-mice,"not only a loss of entire crypts and surface epithelial layer, but also a massive leukocyte infiltration into the mucosa"
same,mRNA levels of TNFα and S100A9,"TNFα, S100A9",increased mRNA levels
same,cleaved caspase-3 expression in spleen MDSCs,cleaved caspase-3,decreased cleaved caspase-3 levels
ipilimumab: humanized anti-CTLA4 monoclonal antibody,survival in months,"[9]; LDH high group (>480 U/I, n=20) prior to ipilimumab",6.6±0.9 months
same,survival in months,"[9]; LDH low group (<480 U/I, n=28) prior to ipilimumab",13.5±1.4 months
same,survival in months,"[9]; M1A/B/C group (n=35), metastatic level prior to ipilimumab",12.4±1.2 months
same,survival in months,"[9]; M2 group (n=18), metastatic level prior to ipilimumab",6.1±1.1 months
same,survival in months,"[9]; melanoma patients, High MDSCs group (>55.5%, n=14) prior to ipilimumab",6.857±1.4 months
same,survival in months,"[9]; melanoma patients, Low MDSCs group (<55.5%, n=39) prior to ipilimumab",11.56±1.2 months
same,patients that responded to the ipilimumab treatment,[9]; out of the 56 patients involved in this study,14 patients
